Laboratory results as given in patent publication US20260152487A1 (Sitryx Therapeutics Limited, priority 2021, published 2026).

Target: T1, recombinant human PKM2 (Homo sapiens, UniProt P14618)
T1 construct: His (N); purchased R&D Systems
Assay: Human PKM2 activation assay (Kinase-Glo Plus luminescent detection of generated ATP)
Type: biochemical
Conditions: for Emax: percentage activation normalised to DMSO vehicle (LOW) and 5 μM TEPP-46 (HIGH), read-out: hPKM2 Emax; for EC50: recombinant human PKM2 activation, 4-parameter logistic fit, read-out: hPKM2 EC50
Experimental: Compound activation of recombinant human PKM2 pyruvate kinase activity was determined by biochemical assay. N-terminal His-tagged hPKM2 was sourced from R&D Systems and its substrates phosphoenolpyruvate (PEP) and ADP from Sigma-Aldrich and 2Bscientific Ltd, respectively. The Kinase-Glo® Plus luminescence assay was from Promega. All other reagents were from Sigma-Aldrich. Test Compounds were prepared as 10 mM DMSO stocks and dilution series prepared in DMSO for direct dilution into Assay Buffer comprising 50 mM imidazole, 50 mM KCl, 7 mM MgCl2, 0.01% Tween20, 0.05% BSA (pH 7.2).
Human PKM2 was diluted into Assay Buffer comprising 50 mM imidazole, 50 mM KCl, 7 mM MgCl2, 0.01% Tween20, 0.05% BSA (pH 7.2) to a final concentration of […]. Enzyme-Assay Buffer mix was dispensed into a 384-well shallow-well white-walled plate (PerkinElmer) and Test Compounds added by acoustic dispense (Echo®, Labcyte Inc.).
After 60 minutes' incubation on an orbital shaker (300 rpm, 26° C.), enzyme activity was quantified by the luminescent detection of generated ATP. Kinase-Glo® Plus reagent was added to each well and the plates incubated for a further 15 minutes on an orbital shaker in the dark (300 rpm, 26° C.) before luminescence measurement on a plate reader (PHERAstar® FSX, BMG Labtech).
Percentage activation was calculated by normalising […] signals to plate LOW (DMSO vehicle) and HIGH (5 μM TEPP-46) controls. EC50 and Emax values were determined from 4-parameter logistic fits of compound concentration-response curves.

T1 sequence (P14618 2-531 limits assumed): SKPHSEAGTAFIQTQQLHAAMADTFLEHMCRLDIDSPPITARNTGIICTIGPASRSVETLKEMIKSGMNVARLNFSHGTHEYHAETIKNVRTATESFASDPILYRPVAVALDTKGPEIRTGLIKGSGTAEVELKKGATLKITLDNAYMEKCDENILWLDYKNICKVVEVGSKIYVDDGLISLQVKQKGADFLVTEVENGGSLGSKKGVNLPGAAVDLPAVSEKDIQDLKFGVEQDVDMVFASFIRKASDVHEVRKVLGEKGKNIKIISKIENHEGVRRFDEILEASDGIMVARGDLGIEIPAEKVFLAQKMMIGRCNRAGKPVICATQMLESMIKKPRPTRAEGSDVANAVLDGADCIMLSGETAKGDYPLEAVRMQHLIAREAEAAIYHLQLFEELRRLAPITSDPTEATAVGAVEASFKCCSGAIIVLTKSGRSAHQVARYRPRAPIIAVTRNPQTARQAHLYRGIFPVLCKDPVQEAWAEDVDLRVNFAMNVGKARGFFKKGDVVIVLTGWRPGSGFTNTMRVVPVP

Q: How did the Emax turn out when `COc1ccc(Cn2ncc3cc(S(=O)(=O)c4cccc(C(N)=O)c4)ccc3c2=O)cn1` [Example 161, 3-(2-((6-methoxypyridin-3-yl)methyl)-1-oxo-1,2-dihydrophthalazin-6-ylsulfonyl)benzamide] was run?
A: 56.8%

Q: And the EC50?
A: 211 nM

Q: With `COc1ccc(Cn2ncc3cc(S(=O)(=O)Nc4ccccc4)ccc3c2=O)cn1` [Example 122, 2-((6-methoxypyridin-3-yl)methyl)-1-oxo-N-phenyl-1,2-dihydrophthalazine-6-sulfonamide] as the compound, how does the Emax read?
A: 60%

Q: And the EC50?
A: 590 nM

Q: How did the Emax turn out when `N#Cc1sccc1Cn1ncc2cc(S(=O)(=O)c3ccccc3)ccc2c1=O` [Example 23, 3-((1-oxo-6-(phenylsulfonyl)phthalazin-2(1H)-yl)methyl)thiophene-2-carbonitrile] was run?
A: 112%

Q: What about the EC50 of the same compound?
A: 265 nM

Q: How did the Emax turn out when `Cc1cc(Cn2ncc3cc(S(=O)(=O)c4cn[nH]c4)ccc3c2=O)nn1C` [Example 310] was run?
A: 107%

Q: And the EC50?
A: 153 nM

Q: Which results are given for `COc1ccc(Cn2ncc3cc(S(=O)(=O)c4ccsc4C(N)=O)ccc3c2=O)cn1` [Example 117, 3-(2-((6-methoxypyridin-3-yl)methyl)-1-oxo-1,2-dihydrophthalazin-6-ylsulfonyl)thiophene-2-carboxamide]?
A: Emax: 77%; EC50: 177 nM

Q: How did the Emax turn out when `NC(=O)c1cccc(Cn2ncc3cc(S(=O)(=O)c4ccccc4)ccc3c2=O)c1` [Example 84, 3-((1-oxo-6-(phenylsulfonyl)phthalazin-2(1H)-yl)methyl)benzamide] was run?
A: 93.1%

Q: What about the EC50 of the same compound?
A: 115 nM

Q: For `COc1ccc(Cn2ncc3cc(OC4(c5ccccc5)COC4)ncc3c2=O)cn1` [Example 125, 3-((6-methoxypyridin-3-yl)methyl)-7-((3-phenyloxetan-3-yl)oxy)pyrido[3,4-d]pyridazin-4(3H)-one], which Emax is on record?
A: 88.8%

Q: What about the EC50 of the same compound?
A: 458 nM

Q: For `COc1ccc(S(=O)(=O)c2ccc3c(=O)n(Cc4ccnc(O)c4)ncc3c2)cc1` [Example 3, 2-((2-hydroxypyridin-4-yl)methyl)-6-((4-methoxyphenyl)sulfonyl)phthalazin-1(2H)-one], which Emax is on record?
A: 92.6%

Q: What about the EC50 of the same compound?
A: 566 nM

Q: How did the Emax turn out when `COc1cccc(S(=O)(=O)c2ccc3c(=O)n(Cc4ccc(OC)nc4)ncc3c2)c1` [Example 116, 6-(3-methoxyphenylsulfonyl)-2-((6-methoxypyridin-3-yl)methyl)phthalazin-1(2H)-one] was run?
A: 96.1%

Q: And the EC50?
A: 59.5 nM

Q: How did the Emax turn out when `COc1ccc(Cn2ncc3cc(S(=O)(=O)c4ccc(Cl)cc4)ccc3c2=O)cn1` [Example 155, 6-((4-chlorophenyl)sulfonyl)-2-((6-methoxypyridin-3-yl)methyl)phthalazin-1(2H)-one] was run?
A: 71.6%

Q: What about the EC50 of the same compound?
A: 184 nM

Q: For `COc1ccc(Cn2ncc3cc(S(=O)(=O)c4ccc5c(c4)CC(C)(C)O5)ccc3c2=O)cn1` [Example 166, 6-((2,2-dimethyl-2,3-dihydrobenzofuran-5-yl)sulfonyl)-2-((6-methoxypyridin-3-yl)methyl)phthalazin-1(2H)-one], which Emax is on record?
A: 99.4%

Q: What about the EC50 of the same compound?
A: 131 nM

Q: What does the source list for `O=c1c2ccc(S(=O)(=O)c3cnn(C(F)F)c3)cc2cnn1Cc1ccc2c(n1)CCO2` [Example 340]?
A: Emax: 111%; EC50: 29.3 nM

Q: Which results are given for `COCCn1cc(S(=O)(=O)c2ccc3c(=O)n(Cc4ccc5c(n4)CCO5)ncc3c2)cn1` [Example 333]?
A: Emax: 101%; EC50: 31.8 nM

Q: Which results are given for `O=c1c2ccc(S(=O)(=O)c3cnccn3)cc2cnn1Cc1cc[nH]n1` [Example 260, 2-((1H-pyrazol-3-yl)methyl)-6-(pyrazin-2-ylsulfonyl)phthalazin-1(2H)-one]?
A: Emax: 113%; EC50: 469 nM

Q: With `Cc1cccc(Cn2ncc3cc(S(=O)(=O)c4cnn(C5CNC5)c4)ccc3c2=O)n1` [Example 276, 6-((1-(azetidin-3-yl)-1H-pyrazol-4-yl)sulfonyl)-2-((6-methylpyridin-2-yl)methyl)phthalazin-1(2H)-one] as the compound, how does the Emax read?
A: 102%

Q: And the EC50?
A: 518 nM

Q: For `NC(=O)c1occc1Cn1ncc2cc(S(=O)(=O)c3ccccc3)ccc2c1=O` [Example 85, 3-((1-oxo-6-(phenylsulfonyl)phthalazin-2(1H)-yl)methyl)furan-2-carboxamide], which Emax is on record?
A: 113%

Q: And the EC50?
A: 71.5 nM

Q: `COc1ccc(Cn2ncc3cc(S(=O)(=O)c4cnc(C(F)F)s4)ccc3c2=O)cn1` [Example 173, 6-(2-(difluoromethyl)thiazol-5-ylsulfonyl)-2-((6-methoxypyridin-3-yl)methyl)phthalazin-1(2H)-one] was tested. Which Emax did it give?
A: 67.2%

Q: What about the EC50 of the same compound?
A: 152 nM

Q: What does the source list for `COc1ccc(Cn2ncc3cc(S(=O)(=O)c4cc(C)ccn4)ccc3c2=O)cn1` [Example 159, 2-((6-methoxypyridin-3-yl)methyl)-6-(4-methylpyridin-2-ylsulfonyl)phthalazin-1(2H)-one]?
A: Emax: 72.4%; EC50: 501 nM

Q: Which results are given for `CC(c1cccnc1)n1ncc2cc(S(=O)(=O)c3ccccc3)ccc2c1=O` (stereo not drawn) [Example 69, 6-(phenylsulfonyl)-2-(1-(pyridin-3-yl)ethyl)phthalazin-1(2H)-one]?
A: Emax: 75.5%; EC50: 1170 nM

Q: How did the Emax turn out when `COc1ccc(Cn2ncc3cc(S(=O)(=O)c4ccc(F)cc4)ccc3c2=O)cn1` [Example 147, 6-((4-fluorophenyl)sulfonyl)-2-((6-methoxypyridin-3-yl)methyl)phthalazin-1(2H)-one] was run?
A: 98.8%

Q: What about the EC50 of the same compound?
A: 94.8 nM

Q: Which Emax does the source give for `Cn1cc(S(=O)(=O)c2cc3cnn(Cc4cc[nH]n4)c(=O)c3cc2NCCO)cn1` [Example 268, 2-((1H-pyrazol-3-yl)methyl)-7-((2-hydroxyethyl)amino)-6-((1-methyl-1H-pyrazol-4-yl)sulfonyl)phthalazin-1(2H)-one] here?
A: 102%

Q: What about the EC50 of the same compound?
A: 352 nM

Q: Which Emax does the source give for `O=c1c2ccc(S(=O)(=O)c3cnn(C(F)F)c3)cc2cnn1Cc1cc[nH]n1` [Example 305] here?
A: 99.9%

Q: `O=c1c2ccc(S(=O)(=O)c3ccc4[nH]ccc4c3)cc2cnn1Cc1cc[nH]n1` [Example 226, 6-((1H-indol-5-yl)sulfonyl)-2-((1H-pyrazol-3-yl)methyl)phthalazin-1(2H)-one] was tested. Which Emax did it give?
A: 114%

Q: What about the EC50 of the same compound?
A: 356 nM

Q: Which results are given for `O=c1c2ccc(S(=O)(=O)c3cc[nH]n3)cc2cnn1Cc1ccn(C2CC2)n1` [Example 339]?
A: Emax: 110%; EC50: 67.8 nM

Q: With `Cn1ccc(Cn2ncc3cc(S(=O)(=O)c4ccc(OC(F)(F)F)cc4)ccc3c2=O)n1` [Example 218, 20((1-methyl-1H-pyrazol-3-yl)methyl)-6-((4-(trifluoromethoxy)phenyl)sulfonyl)phthalazin-1(2H)-one] as the compound, how does the Emax read?
A: 116%

Q: And the EC50?
A: 192 nM

Q: For `COc1ccc(S(=O)(=O)c2ccc3c(=O)n(Cc4cnccc4O)ncc3c2)cc1` [Example 107, 2-((4-hydroxypyridin-3-yl)methyl)-6-(4-methoxyphenylsulfonyl)phthalazin-1(2H)-one], which Emax is on record?
A: 103%

Q: And the EC50?
A: 585 nM

Q: With `Cc1[nH]nc(Cn2ncc3cc(S(=O)(=O)c4ccn(C)n4)ccc3c2=O)c1Cl` [Example 337] as the compound, how does the Emax read?
A: 95.9%

Q: And the EC50?
A: 85.5 nM

Q: Which Emax does the source give for `CC(O)c1cccc(Cn2ncc3cc(S(=O)(=O)c4cnn(C)c4)ccc3c2=O)n1` (stereo not drawn) [Example 274, 2-((6-(1-hydroxyethyl)pyridin-2-yl)methyl)-6-((1-methyl-1H-pyrazol-4-yl)sulfonyl)phthalazin-1(2H)-one] here?
A: 93%

Q: And the EC50?
A: 350 nM

Q: With `Cc1c[nH]nc1Cn1ncc2cc(S(=O)(=O)c3cnn(C)c3)ccc2c1=O` [Example 313] as the compound, how does the Emax read?
A: 92.3%

Q: What about the EC50 of the same compound?
A: 196 nM

Q: What does the source list for `CC1Cc2cc(S(=O)(=O)c3ccc4c(=O)n(Cc5ccn(C)n5)ncc4c3)ccc2O1` (stereo not drawn) [Example 213, 2-((1-methyl-1H-pyrazol-3-yl)methyl)-6-((2-methyl-2,3-dihydrobenzofuran-5-yl)sulfonyl)phthalazin-1(2H)-one]?
A: Emax: 107%; EC50: 36.5 nM

Q: With `Cn1ccc(Cn2ncc3cc([S+]([O-])c4ccccc4)ncc3c2=O)n1` (stereo not drawn) [Example 249, 3-((1-methyl-1H-pyrazol-3-yl)methyl)-7-(phenylsulfinyl)pyrido[3,4-d]pyridazin-4(3H)-one] as the compound, how does the Emax read?
A: 98.1%

Q: And the EC50?
A: 530 nM

Q: Which Emax does the source give for `O=c1c2cc(NCCO)c(S(=O)(=O)c3ccccc3)cc2cnn1Cc1cc[nH]n1` [Example 263, 2-((1H-pyrazol-3-yl)methyl)-7-((2-hydroxyethyl)amino)-6-(phenylsulfonyl)phthalazin-1(2H)-one] here?
A: 98%

Q: And the EC50?
A: 172 nM

Q: Which results are given for `CCOc1ccc(S(=O)(=O)c2ccc3c(=O)n(Cc4ccn(C)n4)ncc3c2)cc1` [Example 216, 6-((4-ethoxyphenyl)sulfonyl)-2-((1-methyl-1H-pyrazol-3-yl)methyl)phthalazin-1(2H)-one]?
A: Emax: 103%; EC50: 74.3 nM

Q: Which results are given for `COc1ccc(Cn2ncc3cc(S(=O)(=O)c4ccn(C(F)F)n4)ccc3c2=O)cn1` [Example 179, 6-(1-(difluoromethyl)-1H-pyrazol-3-ylsulfonyl)-2-((6-methoxypyridin-3-yl)methyl)phthalazin-1(2H)-one]?
A: Emax: 89.7%; EC50: 56.1 nM

Q: `Cc1cccc(S(=O)(=O)c2ccc3c(=O)n(Cc4cc[nH]n4)ncc3c2)n1` [Example 288, 2-((1H-pyrazol-3-yl)methyl)-6-((6-methylpyridin-2-yl)sulfonyl)phthalazin-1(2H)-one] was tested. Which Emax did it give?
A: 93.9%

Q: And the EC50?
A: 187 nM
